Experiment [1] is described as follows: Shn3 3'UTR reporter inhibitors, dose response, cell-based, Clone20 osteoblasts, firefly luciferase, cherry-picked (AID 624132).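 Also: firefly luciferase luminescence from reporter carrying the Shn3 3'UTR in osteoblasts.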 The format is functional.
A short description of experiment [2]: HepG2 cell cytotoxicity, dose response, cytotoxicity control for Shn3 inhibitor project, CellTiter-Glo, cherry-picked (AID 624134). In kind it is functional, cell-based. A general note: Cellular ATP, detected with luciferase, serves as a proxy for viable cell number.
A short description of experiment [3]: control 3'UTR Renilla luciferase suppression, dose response, counter-screen for Shn3 inhibitor project, cell-based, Clone20-Shn3RL, cherry-picked (AID 624133). In kind it is functional.
Experiment [4] concerns the target Protein Wnt-3a (Mus musculus, UniProt P27467). As to the kind of experiment: Wnt3a-driven reporter signaling inhibition, dose response, selectivity assay for Gli-SUFU antagonist project, Wnt-LIGHT cells, luminescence (AID 651570).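 Also: Wnt-LIGHT reporter cells stimulated with conditioned medium from Wnt3a-producing cells.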 In kind it is functional. The note with it: read-out: IC50_Mean.
The nature of experiment [5]: reduction of Shn3 3'UTR firefly luciferase signal, dose response, Schnurri-3 inhibitor project, cell-based, Clone20 osteoblasts, cherry-pick, set 2 (AID 720490).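 Also: actives lower the luminescence signal as inhibitors.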 In kind it is functional.
The nature of experiment [6]: cytotoxicity in HEK-293T cells, dose response, cytotoxicity control for BCR NF-kB inhibitor project, luminescence, B-cell screen hits (AID 489021).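 Also: HEK-293T cells carrying an NF-kB luciferase reporter; cells exposed to compound for about 14 hours before viability readout.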 The format is functional, cell-based.
Experiment [7] has as its target T1, High affinity choline transporter 1 (Homo sapiens, UniProt Q9GZV3).
T1 sequence (Q9GZV3 whole entry): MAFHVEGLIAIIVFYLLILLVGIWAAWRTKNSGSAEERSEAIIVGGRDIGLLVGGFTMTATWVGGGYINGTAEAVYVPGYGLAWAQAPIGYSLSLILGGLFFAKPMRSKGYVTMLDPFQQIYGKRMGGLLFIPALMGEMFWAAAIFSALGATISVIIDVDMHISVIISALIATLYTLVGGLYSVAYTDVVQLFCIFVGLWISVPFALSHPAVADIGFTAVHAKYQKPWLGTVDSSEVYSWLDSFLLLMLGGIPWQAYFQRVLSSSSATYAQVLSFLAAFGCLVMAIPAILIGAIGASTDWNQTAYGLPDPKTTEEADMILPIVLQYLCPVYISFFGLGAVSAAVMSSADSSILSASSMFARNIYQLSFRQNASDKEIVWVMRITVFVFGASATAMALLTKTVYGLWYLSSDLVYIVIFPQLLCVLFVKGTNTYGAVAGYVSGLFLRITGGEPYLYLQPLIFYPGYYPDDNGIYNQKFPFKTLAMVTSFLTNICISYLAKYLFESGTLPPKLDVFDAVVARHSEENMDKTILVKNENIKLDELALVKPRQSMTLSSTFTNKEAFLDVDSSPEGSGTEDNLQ
The experiment can be described thus: CHT inhibitors, dose response, cell-based, 5-point CRC, membrane potential dye (AID 504840). The format is functional.

Experiment [8] relates to INS1. The experiment can be described thus: beta cell apoptosis inhibitors, cytokine rescue, dose response, luminescence, retest (AID 449756).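 Also: cell death triggered by IL-1 beta plus TNF-alpha plus IFN-gamma mixture; protective hits raise ATP signal compared with cytokine alone wells.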 The note with it: Rattus norvegicus. In kind it is functional, cell-based.
Experiment [9] addresses T2, Galanin receptor type 3 (Homo sapiens, UniProt O60755).
T2 sequence (O60755 whole entry): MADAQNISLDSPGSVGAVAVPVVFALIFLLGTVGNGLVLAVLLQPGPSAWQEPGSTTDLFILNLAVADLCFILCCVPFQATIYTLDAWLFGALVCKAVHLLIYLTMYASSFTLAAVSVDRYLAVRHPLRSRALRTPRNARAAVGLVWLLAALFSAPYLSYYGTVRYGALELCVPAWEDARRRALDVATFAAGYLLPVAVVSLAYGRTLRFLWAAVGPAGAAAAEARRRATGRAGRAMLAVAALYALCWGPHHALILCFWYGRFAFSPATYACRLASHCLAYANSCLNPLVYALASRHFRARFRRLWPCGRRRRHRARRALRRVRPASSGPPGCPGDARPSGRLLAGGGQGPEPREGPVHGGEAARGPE
The experiment can be described thus: Fluorescence-based cell-based primary high throughput dose response assay to identify antagonists of the Galanin Receptor 3 (GalR3). In kind it is functional.

A short description of experiment [10]: cells. In kind it is functional, cell-based. To be noted: HEK-CNG.
Experiment [11] can be described thus: ZM109 Env clade C HIV-1 fusion inhibitors, dose response, HeLa effector, CEM target cells, luciferase, cherry-pick (AID 652058). The format is functional, cell-based.
Experiment [12] is described as follows: inhibitors of clade B AD8 Env fusion, dose response, cell-based, cherry-pick (AID 652062).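 Also: luciferase signal from cell-cell fusion driven by HIV-1 clade B AD8 Env; potency is for inhibitors of fusion seen as a drop in luminescence.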 The format is functional.
Experiment [13] has as its target COUP transcription factor 2 (Homo sapiens, UniProt P24468). The experiment can be described thus: Luminescence-based cell-based high throughput dose response assay to identify inhibitors of COUP-TFII (NR2F2). The format is functional.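 Also: HEK293 cells transiently cotransfected with COUP-TFII expression vector and reporter; luciferase reporter luminescence driven by COUP-TFII from the pX2-168 reporter plasmid.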
Experiment [14] in a line: cells. In kind it is functional, cell-based.
Experiment [15] has as its target T3, Nuclear receptor subfamily 0 group B member 1 (Homo sapiens, UniProt P51843).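 Also: HEK293T cells transfected with SF-1 and DAX-1 plus StAR promoter luciferase reporter.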
T3 sequence (P51843 whole entry): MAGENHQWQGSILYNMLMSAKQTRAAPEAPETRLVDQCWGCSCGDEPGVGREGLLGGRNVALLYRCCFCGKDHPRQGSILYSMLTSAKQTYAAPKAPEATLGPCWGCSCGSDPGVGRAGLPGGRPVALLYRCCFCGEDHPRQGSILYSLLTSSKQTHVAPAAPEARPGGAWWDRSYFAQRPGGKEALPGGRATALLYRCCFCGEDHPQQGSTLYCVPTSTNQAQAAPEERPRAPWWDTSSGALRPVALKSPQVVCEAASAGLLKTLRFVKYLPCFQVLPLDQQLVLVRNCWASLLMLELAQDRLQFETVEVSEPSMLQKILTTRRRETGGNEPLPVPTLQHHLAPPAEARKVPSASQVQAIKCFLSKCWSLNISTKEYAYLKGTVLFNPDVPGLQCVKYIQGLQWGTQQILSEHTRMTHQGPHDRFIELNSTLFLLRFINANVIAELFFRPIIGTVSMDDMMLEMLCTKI
In kind it is functional, cell-based.

Experiment [16] concerns the target T4, Oxysterols receptor LXR-beta (Homo sapiens, UniProt P55055).
T4 sequence (P55055 whole entry): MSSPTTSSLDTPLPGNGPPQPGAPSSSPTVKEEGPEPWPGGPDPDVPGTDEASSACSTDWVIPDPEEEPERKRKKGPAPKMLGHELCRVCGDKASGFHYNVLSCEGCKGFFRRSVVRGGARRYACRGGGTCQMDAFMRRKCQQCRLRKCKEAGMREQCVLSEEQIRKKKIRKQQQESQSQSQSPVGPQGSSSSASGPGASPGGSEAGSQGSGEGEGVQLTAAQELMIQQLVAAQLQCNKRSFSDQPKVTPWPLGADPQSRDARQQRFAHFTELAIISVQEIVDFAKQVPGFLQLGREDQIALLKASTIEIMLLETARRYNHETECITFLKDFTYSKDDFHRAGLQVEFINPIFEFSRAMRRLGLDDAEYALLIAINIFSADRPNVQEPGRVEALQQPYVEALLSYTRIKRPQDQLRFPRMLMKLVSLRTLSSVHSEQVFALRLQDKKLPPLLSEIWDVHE
The format is functional, cell-based.

Experiment [17] can be described thus: cells.
Experiment [18] is described as follows: Luminescence-based cell-based high throughput dose response assay to identify activators of the DAF-12 from the parasite S. stercoralis (ssDAF-12). The format is functional.
For experiment [19], the target named is T4, Oxysterols receptor LXR-beta. The experiment can be described thus: LXR agonists, Gal4 luciferase reporter, dose response, counter-screen for ssDAF-12 agonist project, cell-based, luminescence, HEK293, S. stercoralis campaign (AID 720737). In kind it is functional. The note with it: read-out: IC50 (the source's name). For orientation: In a reporter assay the amount or activity of a reporter protein is the signal.

The target in experiment [20] is NAD-dependent protein deacylase sirtuin-5, mitochondrial (Homo sapiens, UniProt Q9NXA8). The experiment can be described thus: SIRT5 desuccinylase inhibitors, dose response, biochemical, fluorescence imaging, cherry-pick, set 5 (AID 720591).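 Also: desuccinylation of succinyl peptide AMC substrate read as fluorescence after trypsin release; potency of inhibitors that lower fluorescence and may act on trypsin instead.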

The source made the active and inactive calls.

Sequence of NAD-dependent protein deacylase sirtuin-5, mitochondrial (Q9NXA8 whole entry): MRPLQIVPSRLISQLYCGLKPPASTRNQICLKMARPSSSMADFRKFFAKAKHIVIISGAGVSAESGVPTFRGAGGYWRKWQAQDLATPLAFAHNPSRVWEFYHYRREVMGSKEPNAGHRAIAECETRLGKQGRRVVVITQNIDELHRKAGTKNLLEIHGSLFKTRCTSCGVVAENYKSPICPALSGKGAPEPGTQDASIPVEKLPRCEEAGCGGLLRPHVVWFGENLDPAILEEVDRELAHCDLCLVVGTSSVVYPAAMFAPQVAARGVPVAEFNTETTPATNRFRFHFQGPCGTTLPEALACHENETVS
Sequence of COUP transcription factor 2 (P24468 whole entry): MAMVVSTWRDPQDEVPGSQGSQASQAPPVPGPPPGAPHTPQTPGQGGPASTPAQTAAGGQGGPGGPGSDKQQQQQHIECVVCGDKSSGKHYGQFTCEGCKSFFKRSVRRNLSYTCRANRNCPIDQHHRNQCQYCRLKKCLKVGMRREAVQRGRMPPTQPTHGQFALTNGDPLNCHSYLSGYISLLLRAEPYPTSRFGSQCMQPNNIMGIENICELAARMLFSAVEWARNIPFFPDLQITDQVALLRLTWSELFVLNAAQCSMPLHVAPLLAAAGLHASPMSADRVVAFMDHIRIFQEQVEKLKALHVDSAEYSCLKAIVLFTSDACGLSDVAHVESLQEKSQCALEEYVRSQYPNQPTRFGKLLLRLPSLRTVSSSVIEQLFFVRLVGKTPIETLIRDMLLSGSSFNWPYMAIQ
Sequence of Protein Wnt-3a (P27467 whole entry): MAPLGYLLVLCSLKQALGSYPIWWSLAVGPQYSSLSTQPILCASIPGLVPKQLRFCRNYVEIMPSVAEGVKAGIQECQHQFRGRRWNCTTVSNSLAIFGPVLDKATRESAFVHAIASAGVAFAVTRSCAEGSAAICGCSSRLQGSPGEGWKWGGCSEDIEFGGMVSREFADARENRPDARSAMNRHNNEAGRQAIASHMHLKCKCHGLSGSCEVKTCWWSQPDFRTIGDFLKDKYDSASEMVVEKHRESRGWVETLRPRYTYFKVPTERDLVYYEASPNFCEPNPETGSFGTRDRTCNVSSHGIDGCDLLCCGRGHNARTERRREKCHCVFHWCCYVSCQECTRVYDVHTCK

A word on the AC50: it is the midpoint of the concentration-response curve, whichever way the signal moves. Turning to `CCN(CC)S(=O)(=O)c1ccc(S(=O)(=O)Nc2c(C)nn(C)c2C)cc1`, the AC50 is 2.24 µM (active) in experiment [1], 36.6 µM (active) in [2], 27.4 µM (active) in experiment [3] and 1.06 µM (active) in experiment [5]. In experiment [4], the IC50 is 8.16 µM (active).

Regarding `Cc1nn(C)c(C)c1CN(C)S(=O)(=O)c1ccc2ccccc2c1`, the IC50 was > 80 µM (inactive) in [6], 12.6 µM (active) in [7], 1.01 µM (active) in [9] and 3.25 µM (active) in experiment [13]. Besides, the AC50 was 1.93 µM (active) in experiment [8], 0.626 µM (active) in experiment [11] and 2.42 µM (active) in experiment [12]. In addition, the EC50 in experiment [10] is > 29.9 µM (inactive).

For `O=C(Nc1ccccn1)c1sc2cccc(F)c2c1Cl`, the IC50 was > 67.6 µM (inactive) in experiment [14] and > 0.834 µM (active) in experiment [15]. Moreover, the EC50 in experiment [16] and in experiment [17] was > 67.6 µM (inactive) each time.

For `C(=Cc1c[nH]c2ccccc12)c1nccc2ccccc12`, in experiment [18], the IC50 is > 67.6 µM (inactive). The EC50 in [19] is > 67.6 µM (inactive); in experiment [16], > 67.4 µM (inactive); in experiment [17], > 67.4 µM (inactive).

As for `CCOc1ccc(CCNC(=O)c2cccc(S(=O)(=O)N3CCN(C(C)=O)CC3)c2)cc1OCC`, the AC50 in experiment [20] is > 30 µM (inactive).

In the case of `Cc1ccc(S(=O)(=O)N2C[C@@H]3CCCC[C@@H]3[C@@H](C)[C@H]2c2cn(Cc3ccccc3)c3ccc(F)cc23)cc1`, the AC50 in experiment [20] is > 30 µM (inactive).

Values taken from ChEMBL document CHEMBL1201862, “PubChem BioAssay data set” (2004).
